Experimental data taken from patent US9622953B2, “Cosmetic use of catalytic oxidation compounds chosen from porphyrins, phthalocyanines and/or porphyrazines as deodorant agent” (L'Oreal, priority 2011, dated 2017).

Columns and labels:
[1] = Test 1: Oxidation of 2,2,6,6-tetramethylpiperidine (TEMP); conditions: phosphate buffer pH 7.4, 50 mM TEMP, porphyrin 0.5 μM, oxygen saturated, daylight, 1 hour, EPR
Description: (§1) The oxidizing agent used during this test is dissolved oxygen.
A solution comprising a phosphate buffer (pH 7.4), 50 mM of the compound 2,2,6,6-tetramethylpiperidine (TEMP) and a porphyrin compound at 0.5 μM is prepared. The solution is saturated with oxygen. The solution is subjected to daylight.
After 1 hour, electron paramagnetic resonance spectrometry (EPR) is performed on the oxidized form of the compound 2,2,6,6-tetramethylpiperidine (TEMP), which corresponds to the compound (2,2,6,6-tetramethylpiperidin-1-yl)oxyl, known as TEMPO.
With a porphyrin compound according to the invention, the appearance of the compound TEMPO is observed after bringing into contact for 1 hour.

[2] = Blind sniff test of incubated flasks of human sweat by a panel of 8 testers; conditions: 1 mg of porphyrin compound in flask of sweat, same trial as Example 1
Description: 1) Human sweat is collected. During this collecting, the sweat is frozen.
2) The sweat is subsequently placed in a flask, so that there is an air phase above, once the flask is closed. 1 gram of sweat is placed in a 20 ml flask.
3) The porphyrin compound is placed in the flask in a proportion of 0.1 mg.
4) The flask is closed and incubated at 37° C. A test is then carried out which consists in sniffing the flask at t=4 hours and at t=16 hours.
The test is carried out blind and in comparison with a flask of sweat not comprising additive, a flask of sweat comprising a porphyrin compound not included in the present invention, such as cupric chlorophyllin, and a flask of sweat comprising 0.1 mg of triclosan.
The test is carried out by a panel composed of 8 testers who record their impression in terms of odorous intensity and of quality (ranging from neutral up to repulsive) and the mean of the impressions is produced.
1 mg of each of the porphyrin compounds is introduced into flasks comprising sweat collected in the same way as in Example 1.

[3] = Test 2: Oxidation of DMPO; conditions: aqueous solution pH=7, 100 mM DMPO, porphyrin 100 μM, oxygen saturated, daylight, 1 hour, EPR
Description: as §1
An aqueous solution, pH=7, comprising 100 mM of DMPO and a porphyrin compound at 100 μM, is prepared. The solution is saturated with oxygen. The solution is subjected to daylight.
After 1 hour, electron paramagnetic resonance spectrometry (EPR) is performed on the oxidized form of the compound 5,5-dimethyl-1-pyrroline N-oxide, known as DMPO-OH.
More specifically, the EPR spectrum is characterized by a hyperfine coupling constant of a^N=a^H=14.6 G.

[4] = Test 3: Activation of Hydrogen Peroxide; conditions: 1 mM porphyrin in 10-volume hydrogen peroxide, spontaneous pH, daylight
Description: 1 mM of a porphyrin compound is placed in 10-volume hydrogen peroxide, spontaneous pH.
The solution is subjected to daylight.
The content of hydrogen peroxide is then assayed. The porphyrin compound is regarded as within the invention if it reduces the amount of hydrogen peroxide by factor of at least 2 (5 volumes or less).

In the case of “copper chlorophyllin [reference compound]”, the “formation of the compound TEMPO (response to Test 1)” value (from here on “formation of the compound TEMPO”) [1] is reported as “does not result in the formation of the compound TEMPO”.
For `C[n+]1ccc(-c2c3nc(c(-c4cc[n+](C)cc4)c4ccc([nH]4)c(-c4cc[n+](C)cc4)c4nc(c(-c5cc[n+](C)cc5)c5ccc2[nH]5)C=C4)C=C3)cc1` [cationic porphyrin compound], the “effectiveness in the sweat flask odour trial” value [2] was “effective”, the “formation of the compound TEMPO” value [1] was “responds positively” and the “formation of DMPO-OH (response to Test 2)” value [3] was “responds positively”.
In the case of `O=S(=O)(O)c1ccc(-c2c3nc(c(-c4ccc(S(=O)(=O)O)cc4)c4ccc([nH]4)c(-c4ccc(S(=O)(=O)O)cc4)c4nc(c(-c5ccc(S(=O)(=O)O)cc5)c5ccc2[nH]5)C=C4)C=C3)cc1` [anionic porphyrin compound], the “effectiveness in the sweat flask odour trial” value [2] is reported as “effective”, the “formation of the compound TEMPO” value [1] is reported as “responds positively” and the “reduction of the amount of hydrogen peroxide by factor of at least 2 (response to Test 3)” value [4] is reported as “responds positively”.
